Reference: patent US8242146B2, “Combination of a NSAID and a PDE-4 inhibitor” (Nycomed GmbH, priority 2002, dated 2012)

Tests used:
[1] = target: partially purified or recombinant PDE5 (Homo sapiens, UniProt O76074); assay: Inhibition of phosphodiesterase 5 in vitro; format: biochemical
[2] = Diclofenac induced blood loss in mice (fecal hemoglobin); format: in vivo; details: male, NMRI, mouse, feces, oral; mice, 3-100 mg/kg p.o., spectrophotometric determination of fecal hemoglobin; read-out: ED50 of induced gastrointestinal bleeding
Experimental: (§1) Male NMRI mice (Charles River Laboratories, Sulzfeld, Germany) weighting 23-25 g were housed in groups of 5 under standard conditions at a temperature of 22° C.+/−2° C. and a 12 h light-dark cycle. If not otherwise stated animals had free access to tap water and standard food pellets. Diclofenac was administrated at doses from 1-100 mg/kg p.o.; rolipram, roflumliast and RP73401 were given at doses from 1-100 mg/kg p.o. Preventive treatment: Diclofenac was given at time point 0 h. At time points −24, −16, 0 h, +7 h one of the selective PDE4 inhibitors was administered. Curative treatment: Diclofenac was given at time point 0 h. At time points +1 h and +7 h one of the selective PDE4 inhibitors was administered. The drugs used were dissolved in 4% aqueous methyl cellulose. The animals were food reduced 24 h prior diclofenac administration. For each experiment 5 animals were used for one experimental point. Following 24 h administration of drugs animals were weighted and stool was collected quantitatively and homogenized as described below:
(§2) The modified method of Welch (Clin. Chem. 29/12, 2022-2025, 1983) was used. The amount of hemoglobin was determined by the heme catalyzed oxidation of tolidine in the presence of hydrogen peroxide. Feces was homogenized in destined water in a concentration with 1 g feces/6.6 ml H20 with an ultra-turrax (IKA-Werke, Germany). 500 μl aliquots from two different areas of the stool were taken to minimize error due to inhomogenous distribution of blood in the feces and heated 10 min at 95° C. to inactivate peroxidases and than diluted with 500 μl of acetic acid/H20 (30/70 vol/vol). Hemoglobin was extracted in 2.5 ml of acetic acid/H20 (30/70 vol/vol) by the addition of 4.5 ml ethyl acetate. The sample was rigorously shacked and the supernatant was used following a centrifugation step for optical detection of hemoglobin. Tolidine was prepared freshly from a stock solution (0.4 g tolidine in 10 ml ethanol) by mixing equal volumes of stock solution, H20 and acetic acid and equilibrated at room temperature. 20 μl of extracted supernatant was diluted to 100 μl ethyl acetate in a 96er crystal plate and incubated with 50 μl of the working solution. The reaction was initiated by the injection of 25 μl hydrogen peroxide (6%) in a Wallac Victor spectro-photometer (Turku, Finnland). The increase of OD 690 was monitored by a kinetic analysis and expressed as ΔOD690/min.

[3] = target: partially purified or recombinant PDE4; assay: Inhibition of phosphodiesterase 4 in vitro; format: biochemical
Male NMRI mice [4] = assay: Diclofenac induced blood loss in mice (fecal hemoglobin); format: in vivo; details: for % reduction of ΔOD690/min: NSAID 100 mg/kg diclofenac
Experimental: as §1, §2

Male NMRI mice [5] = assay: Indomethacin induced blood loss in mice (fecal hemoglobin); format: in vivo; details: NSAID 30 mg/kg indomethacin; PDE4 inhibitor 100 mg/kg p.o., curative
Experimental: as §1, with “Diclofenac was administrated at doses from 1-100 mg/kg p.o.; rolipram, roflumliast and RP73401 were given at doses from 1-100 mg/kg p.o. Preventive treatment: Diclofenac was given at time point 0 h.” left out, “Curative treatment: Diclofenac was given at time point 0 h.” left out
The modified method of Welch (Clin. Chem. 29/12, 2022-2025, 1983) was used. The amount of hemoglobin was determined by the heme catalyzed oxidation of tolidine in the presence of hydrogen peroxide. Feces was homogenized in destined water in a concentration with 1 g feces/6.6 ml H20 with an ultra-turrax (IKA-Werke, Germany). […] The increase of OD 690 was monitored by a kinetic analysis and expressed as ΔOD690/min.

[6] = test system: isolated guinea pig Langendorff hearts; assay: Isolated guinea pig Langendorff heart

## O=C(O)Cc1ccccc1Nc1c(Cl)cccc1Cl [Diclofenac, 2-[(2,6-dichlorophenyl)amino]benzeneacetic acid]
[1]
  IC50 PDE5: >100 µM
  PDE5 activity (in words): only minor effects
[2]
  ED50 at 24 h: 56 mg/kg
[3]
  IC50: > 100 µM
  PDE4 activity (in words): only minor effects

## CS(=O)(=O)Nc1cc2c(cc1Oc1ccc(F)cc1F)C(=O)CC2 [CGP28238, 6-(2,4-difluorophenoxy)-5-methylsulfonylamino-1-indanone]
[1]
  IC50 PDE5: 14 µM
  PDE5 activity (in words): in the μM range
[3]
  IC50: 23 µM
  PDE4 activity (in words): in the μM range

## COc1ccc(C2CNC(=O)C2)cc1OC1CCCC1 (centres unmarked) [Rolipram]
Male NMRI mice [4]; PDE4 inhibitor 10 mg/kg p.o., curative
  % reduction of ΔOD690/min: 82%
Male NMRI mice [4]; PDE4 inhibitor 30 mg/kg p.o., preventive
  % reduction of ΔOD690/min: 90%
Male NMRI mice [5]
  % reduction of ΔOD690/min: 65%

## COc1ccc(C(=O)Nc2c(Cl)cncc2Cl)cc1OC1CCCC1 [RP73401]
Male NMRI mice [5]
  % reduction of ΔOD690/min: 96%

## O=C(Nc1c(Cl)cncc1Cl)c1ccc(OC(F)F)c(OCC2CC2)c1 [Roflumilast, 3-Cyclopropylmethoxy-4-difluoromethoxy-N-(3,5-dichloropyrid-4-yl)-benzamide]
Male NMRI mice [4]; PDE4 inhibitor 3 mg/kg p.o., curative
  % reduction of ΔOD690/min: 95%
Male NMRI mice [4]; PDE4 inhibitor 10 mg/kg p.o., preventive
  % reduction of ΔOD690/min: 95%

## Cc1ccc(-c2cc(C(F)(F)F)nn2-c2ccc(S(N)(=O)=O)cc2)cc1 [Celecoxib, 4-[5-(4-methylphenyl)-3-(tri-fluoromethyl)-1H-pyrazol-1-yl]benzenesulfonamide]
[6]
  heart rate: no effect
  left ventricular pressure: no effect
[6]; doses consistent with inhibitory potency on PDE4 and 5
  coronary heart flow: selectively increased
[1]
  PDE5 activity (in words): in the μM range
[3]
  IC50: 6 µM
  PDE4 activity (in words): in the μM range

## CCCc1nn(C)c2c(=O)[nH]c(-c3cc(S(=O)(=O)N4CCN(C)CC4)ccc3OCC)nc12 [sildenafil]
Male NMRI mice [4]; diclofenac 10-100 mg/kg p.o. t=0 h, sildenafil 3-100 mg/kg p.o. t=-48 h to +7 h
  protection from NSAID-induced blood loss: no protection

## CS(=O)(=O)Nc1cc2c(cc1Sc1ccc(F)cc1F)C(=O)CC2 [L-745337, 5-methanesulfonamido-6-(2,4-difluorophenylthio)-1-indanone]
[1]
  IC50 PDE5: 24 µM
  PDE5 activity (in words): in the μM range
[3]
  IC50: 31 µM
  PDE4 activity (in words): in the μM range

## COc1ccc2c(c1)c(CC(=O)O)c(C)n2C(=O)c1ccc(Cl)cc1 [Indometacin, 1-(4-chlorobenzoyl)-5-methoxy-2-methyl-1H-indole-3-acetic acid]
[1]
  IC50 PDE5: 62 µM
  PDE5 activity (in words): only minor effects
[3]
  IC50: ~100 µM
  PDE4 activity (in words): only minor effects

## CS(=O)(=O)Nc1ccc([N+](=O)[O-])cc1Oc1ccccc1 [Nimesulide, 4′-nitro-2′-phenoxymethansulfonamide]
[1]
  IC50 PDE5: 25 µM
  PDE5 activity (in words): in the μM range
[3]
  IC50: 58 µM
  PDE4 activity (in words): in the μM range

## CC(=O)Oc1ccccc1C(=O)O [ASS, 2-(acetyloxy)benzoic acid]
[1]
  IC50 PDE5: >100 µM
  PDE5 activity (in words): only minor effects
[3]
  IC50: > 100 µM
  PDE4 activity (in words): only minor effects
